The record followed here is patent US20020146424A1, “Polyphenolics for enhancing endothelial cell-mediated fibrinolysis” (priority 2001, published 2002).

The subject of one assay is cultured HUVECs. Nature of the assay: Surface-localized fibrinolytic activity (125I-labeled Glu-Pmg conversion to plasmin) in cultured HUVECs. It is filed as cell-based, human. The note with it: 1 hour preincubation; for surface-localized fibrinolytic activity, maximum increase: 0.001 μM, control 38.0 pmol/well; for surface-localized fibrinolytic activity, maximum increase / surface-localized fibrinolytic activity, peak: 24 hours after induction; for surface-localized fibrinolytic activity, peak: 10 μM, control 38.0±4.0; for increase in fibrinolytic activity compared to control: measured 24 hours later. The method, then: Human umbilical vein ECs (HUVECs) were obtained from fresh (discarded) umbilical cords by mild collagenase treatment (type 1, CLS) by the method of Jaffe et al (J. […] ECs were seeded into human fibronectin-coated Petri dishes (9.6 cm^2) or plastic flasks (25 cm^2) and grown to confluency. Cultures were maintained at 37° C. in a humidified 95% air, 5% CO2 atmosphere and re-fed every 48 hours with complete culture medium consisting of Medium 199 (M199) powdered medium containing L-glutamine and Earle's salt, 0.025 M HEPES buffer (pH 7.4), 0.0002 M fresh L-glutamine, 100 units/ml of penicillin, 100 μg/ml streptomycin, 10% heat-deactivated FBS, 90 μg/ml heparin and 50 μg/ml of unpurified ECGF. […] Cells were routinely counted using phase microscopy and a 0.5 mm×0.5 mm counting reticule. Individual HUVEC cultures were routinely examined for their purity and characterized as ECs by their uptake of Dil-Ac-LDL and typical monlayer “cobblestone” tight-packing morphology. Only individual cultures with 95% identifiable ECs were used in these studies. All alcohol induction studies were conducted with confluent cultured HUVECs (in 96-well plates) preincubated in the absence/presence of varying concentration of alcohol (0-0.1%, v/v) for one hour at 37° C., washed two times in DBPS, re-fed with complete 10% serum containing medium and then further incubated at 37° C. in the absence of alcohol for 24 hours. surface-localized fibrinolytic activity was measured as the conversion of ^125-labeled Glu-Pmg levels after 24 hours. All studies were conducted with confluent cultured HUVECs. The cells were preincubated in the absence/presence of varying dilutions (1:1000, 1:500, 1:250, 1:125, 1:62.5) of red wine, de-alcoholized red wine or grape juice for 1 hour at 37° C., washed two times with DPBS, re-fed with complete 10% serum-containing medium, and then further incubated at 37° C. in the absence of these compounds for 24 hours. Surface-localized fibrinolytic activity was measured as the conversion of ^125-labeled Glu-Pmg levels after 24 hours. All polyphenolic induction studies were conducted with confluent cultured HUVECs (in 96-well plates). The cells were preincubated in the absence/presence of varying concentrations (0.001-10 μM) of catechin, epicatechin, quercetin or resveratrol for 1 hour at 37° C., washed two times with DPBS, re-fed with complete 10% serum-containing medium, and then further incubated at 37° C. in the absence of these compounds for 24 hours. Surface-localized fibrinolytic activity was measured by the direct conversion of cell-bound ^125I-labeled Glu-Pmg hours after the initial induction period. […] The generation of either ^125I-labeled plasmin Mr 20-kDa light or Mr 83-kDa heavy chain formation was quantitated by phosphorimaging autoradiography after SDS-PAGE under reduced conditions. […] The cultures were then placed in a water bath at 37° C. to initiate the receptor-bound endogenous PA-mediated conversion of ^125I labeled Glu-Pmg to ^125I-labeled plasmin. Reactions were stopped after 1 and 10 minutes by the rapid addition of 40 μl of hot (56° C.) solubilizing buffer (4% sodium dodecyl sulfate (SDS), 10% glycerol and 0.2M Tris-HCl, pH 6.8). The total solubilized contents of each well containing generated ^125I-labeled plasmin were removed and reduced by the addition of 5% B-mercaptoethanol and boiling for 5 minutes. […] The radioactivity content of either the ^125I-labeled plasmin light- or heavy-chains was determined by quantitative phosphorimaging autoradiography. After electrophoresis, gels were dried and exposed in phosphorimaging cassettes for 16-18 hours. The amount of remaining ^125I-labeled Glu-Pmg and newly generated ^125I-labeled Mr 20-kDa plasmin light chain in each individual gel was quantitated by measuring the radioactivity content in each band by phosphorimaging autoradiography, using a Molecular Dynamics Series […] Phosphorimager in combination with ImageQuant software. […]

For the next assay, the system named is t-PA mRNA. Nature of the assay: t-PA mRNA expression in rat aortic endothelium by in situ hybridization after gavage. The assay is classed as in vivo, Sprague Dawley rats. The settings on record: 6 hours after gavage; catechin 0.495, epicatechin 0.224, quercetin 0.033, resveratrol 0.0033 mg/kg; ethanol 1.25% v/v. As for the experimental part: (§1) Rats used in in vivo studies were Sprague Dawley rats weighing 250 to 300 grams.
For in vivo studies, 18 male Sprague Dawley rats, 250-300 g, were intubated with Popper feeding tubes (20 gauge, 1.5 inches). The control group of three rats were gavaged with PBS in a final volume of 1 ml. Five experimental groups with three rats per groups were gavaged with 1 ml of PBS containing either individual phenolic (catechin, 0.495; epicatechin, 0.224; quercetin, 0.033; and resveratrol, 0.0033 mg/kg body weight), or ethanol 1.25% v/v, for final 0.05% blood level. These doses of phenolics and ethanol are equivalent, on a per kg basis, to the amount consumed in about 2 glasses (25 ml) of red wine by a 70 kg adult. The t-PA and u-PA mRNA expression was analyzed at 6 hours after treatment, when the rats were anesthetized with ketamine/rompin. The thoracic aorta was perfusion-fixed and paraffin embedded to evaluate the effects of ethanol and individual phenolics on the induction of t-PA and u-PA mRNA expression in vivo in the aortic endothelium using in situ hybridization using riboprobes.
To insure that the t-PA and u-PA sense and antisense riboprobes were specific for their respective mRNAs in tissue sections, the sequence-verified riboprobes were hybridized with purified rat liver RNA, rich in t-PA and u-PA mRNA.

The next assay has as its system PAI-1 mRNA. The assay can be described thus: PAI-1 mRNA expression in rat thoracic aorta endothelial cells by in situ hybridization after gavage. It is filed as in vivo. The settings on record: 6 hours after gavage; catechin 0.495, epicatechin 0.224, quercetin 0.033, resveratrol 0.0033 mg/kg; ethanol 1.25% v/v. As for the experimental part: as §1
In in vivo studies of rat thoracic aorta, eighteen male rats were treated by gavage as indicated above. One control group of three rats was gavaged with 1 ml of saline. Five experimental groups with three rats per group were then gavaged with 1 ml saline containing one of the following: (i) 1.25% (v/v) ethanol, (i) 0.495 mg catechin per kg body weight, (iii) 0.224 mg epicatechin per kg body weight, (iv) 0.033 mg quercetin per kg body weight, or (v) 0.0033 mg resveratrol per kg body weight.
At 3 and 6 hours following gavage, the animals were anesthetized with ketamine/rompin (10 and 1.5 mg/100 g body weight, respectively). The portal vein was cannulated and the vasculature perfused with cold, heparinized saline for 5 minutes to remove blood. […] The thoracic aorta was perfused-fixed and paraffin embedded to evaluate the short-term effects of alcohol/phenolics on PA1-I mRNA expression using in situ hybridization techniques.

With `Oc1cc(O)c2c(c1)O[C@H](c1ccc(O)c(O)c1)[C@H](O)C2` [epicatechin], the “surface-localized fibrinolytic activity, maximum increase” value with cultured HUVECs worked out at 89.0±4.0 pmol/well.

As to `O=c1c(O)c(-c2ccc(O)c(O)c2)oc2cc(O)cc(O)c12` [quercetin], the “t-PA mRNA chromogenic signal intensity (antisense riboprobe) in aortic tissue sections vs PBS-treated animals” value in the assay on t-PA mRNA is recorded as “more chromogenic signal intensity”. For the same molecule, in the assay with PAI-1 mRNA, the “expression of PAI-1 mRNA in endothelium of thoracic aorta” value (“expression of PAI-1 mRNA” for short) is recorded as “markedly reduced”. For the same molecule, the “surface-localized fibrinolytic activity, peak” value in the assay with cultured HUVECs stood at 64.0±6.0.

As for `CCO` [ethanol, reference compound], the “t-PA mRNA chromogenic signal intensity (antisense riboprobe) in aortic tissue sections vs PBS-treated animals” value in the assay on t-PA mRNA is “more chromogenic signal intensity”. In the assay with PAI-1 mRNA, the “expression of PAI-1 mRNA” value is “significant decrease”. The “increase in fibrinolytic activity compared to control” value is on record as “about 1.5 fold” in the assay on cultured HUVECs (0.05% (v/v) ethanol, p=0.05) and “about 3 fold” with cultured HUVECs (0.1% (v/v) ethanol, p=0.0055).

On to catechin, for which the “t-PA mRNA chromogenic signal intensity (antisense riboprobe) in aortic tissue sections vs PBS-treated animals” value in the assay with t-PA mRNA was “more chromogenic signal intensity”. Also, the “expression of PAI-1 mRNA” value in the assay on PAI-1 mRNA is reported as “markedly reduced”. Besides, the “surface-localized fibrinolytic activity, maximum increase” value with cultured HUVECs stood at 91.5±5.0 pmol/well.

On to `Oc1ccc(C=Cc2cc(O)cc(O)c2)cc1` [resveratrol], for which the “t-PA mRNA chromogenic signal intensity (antisense riboprobe) in aortic tissue sections vs PBS-treated animals” value with t-PA mRNA is recorded as “more chromogenic signal intensity”. The “expression of PAI-1 mRNA” value with PAI-1 mRNA is on record as “markedly reduced”. For the same molecule, the “surface-localized fibrinolytic activity, peak” value in the assay on cultured HUVECs is recorded as 55.0±6.0.
